Results: BindingDB's records for patent US12552793 (Kangbaida (Sichuan) Biotechnology Co., 2026)

Target: DNA-dependent protein kinase catalytic subunit (Homo sapiens, UniProt P78527)
Test: Inhibition of DNA-PK Kinase
Experimental: IC50 was calculated using GraphPad Prism 8.

Sequence of DNA-dependent protein kinase catalytic subunit (P78527 whole entry): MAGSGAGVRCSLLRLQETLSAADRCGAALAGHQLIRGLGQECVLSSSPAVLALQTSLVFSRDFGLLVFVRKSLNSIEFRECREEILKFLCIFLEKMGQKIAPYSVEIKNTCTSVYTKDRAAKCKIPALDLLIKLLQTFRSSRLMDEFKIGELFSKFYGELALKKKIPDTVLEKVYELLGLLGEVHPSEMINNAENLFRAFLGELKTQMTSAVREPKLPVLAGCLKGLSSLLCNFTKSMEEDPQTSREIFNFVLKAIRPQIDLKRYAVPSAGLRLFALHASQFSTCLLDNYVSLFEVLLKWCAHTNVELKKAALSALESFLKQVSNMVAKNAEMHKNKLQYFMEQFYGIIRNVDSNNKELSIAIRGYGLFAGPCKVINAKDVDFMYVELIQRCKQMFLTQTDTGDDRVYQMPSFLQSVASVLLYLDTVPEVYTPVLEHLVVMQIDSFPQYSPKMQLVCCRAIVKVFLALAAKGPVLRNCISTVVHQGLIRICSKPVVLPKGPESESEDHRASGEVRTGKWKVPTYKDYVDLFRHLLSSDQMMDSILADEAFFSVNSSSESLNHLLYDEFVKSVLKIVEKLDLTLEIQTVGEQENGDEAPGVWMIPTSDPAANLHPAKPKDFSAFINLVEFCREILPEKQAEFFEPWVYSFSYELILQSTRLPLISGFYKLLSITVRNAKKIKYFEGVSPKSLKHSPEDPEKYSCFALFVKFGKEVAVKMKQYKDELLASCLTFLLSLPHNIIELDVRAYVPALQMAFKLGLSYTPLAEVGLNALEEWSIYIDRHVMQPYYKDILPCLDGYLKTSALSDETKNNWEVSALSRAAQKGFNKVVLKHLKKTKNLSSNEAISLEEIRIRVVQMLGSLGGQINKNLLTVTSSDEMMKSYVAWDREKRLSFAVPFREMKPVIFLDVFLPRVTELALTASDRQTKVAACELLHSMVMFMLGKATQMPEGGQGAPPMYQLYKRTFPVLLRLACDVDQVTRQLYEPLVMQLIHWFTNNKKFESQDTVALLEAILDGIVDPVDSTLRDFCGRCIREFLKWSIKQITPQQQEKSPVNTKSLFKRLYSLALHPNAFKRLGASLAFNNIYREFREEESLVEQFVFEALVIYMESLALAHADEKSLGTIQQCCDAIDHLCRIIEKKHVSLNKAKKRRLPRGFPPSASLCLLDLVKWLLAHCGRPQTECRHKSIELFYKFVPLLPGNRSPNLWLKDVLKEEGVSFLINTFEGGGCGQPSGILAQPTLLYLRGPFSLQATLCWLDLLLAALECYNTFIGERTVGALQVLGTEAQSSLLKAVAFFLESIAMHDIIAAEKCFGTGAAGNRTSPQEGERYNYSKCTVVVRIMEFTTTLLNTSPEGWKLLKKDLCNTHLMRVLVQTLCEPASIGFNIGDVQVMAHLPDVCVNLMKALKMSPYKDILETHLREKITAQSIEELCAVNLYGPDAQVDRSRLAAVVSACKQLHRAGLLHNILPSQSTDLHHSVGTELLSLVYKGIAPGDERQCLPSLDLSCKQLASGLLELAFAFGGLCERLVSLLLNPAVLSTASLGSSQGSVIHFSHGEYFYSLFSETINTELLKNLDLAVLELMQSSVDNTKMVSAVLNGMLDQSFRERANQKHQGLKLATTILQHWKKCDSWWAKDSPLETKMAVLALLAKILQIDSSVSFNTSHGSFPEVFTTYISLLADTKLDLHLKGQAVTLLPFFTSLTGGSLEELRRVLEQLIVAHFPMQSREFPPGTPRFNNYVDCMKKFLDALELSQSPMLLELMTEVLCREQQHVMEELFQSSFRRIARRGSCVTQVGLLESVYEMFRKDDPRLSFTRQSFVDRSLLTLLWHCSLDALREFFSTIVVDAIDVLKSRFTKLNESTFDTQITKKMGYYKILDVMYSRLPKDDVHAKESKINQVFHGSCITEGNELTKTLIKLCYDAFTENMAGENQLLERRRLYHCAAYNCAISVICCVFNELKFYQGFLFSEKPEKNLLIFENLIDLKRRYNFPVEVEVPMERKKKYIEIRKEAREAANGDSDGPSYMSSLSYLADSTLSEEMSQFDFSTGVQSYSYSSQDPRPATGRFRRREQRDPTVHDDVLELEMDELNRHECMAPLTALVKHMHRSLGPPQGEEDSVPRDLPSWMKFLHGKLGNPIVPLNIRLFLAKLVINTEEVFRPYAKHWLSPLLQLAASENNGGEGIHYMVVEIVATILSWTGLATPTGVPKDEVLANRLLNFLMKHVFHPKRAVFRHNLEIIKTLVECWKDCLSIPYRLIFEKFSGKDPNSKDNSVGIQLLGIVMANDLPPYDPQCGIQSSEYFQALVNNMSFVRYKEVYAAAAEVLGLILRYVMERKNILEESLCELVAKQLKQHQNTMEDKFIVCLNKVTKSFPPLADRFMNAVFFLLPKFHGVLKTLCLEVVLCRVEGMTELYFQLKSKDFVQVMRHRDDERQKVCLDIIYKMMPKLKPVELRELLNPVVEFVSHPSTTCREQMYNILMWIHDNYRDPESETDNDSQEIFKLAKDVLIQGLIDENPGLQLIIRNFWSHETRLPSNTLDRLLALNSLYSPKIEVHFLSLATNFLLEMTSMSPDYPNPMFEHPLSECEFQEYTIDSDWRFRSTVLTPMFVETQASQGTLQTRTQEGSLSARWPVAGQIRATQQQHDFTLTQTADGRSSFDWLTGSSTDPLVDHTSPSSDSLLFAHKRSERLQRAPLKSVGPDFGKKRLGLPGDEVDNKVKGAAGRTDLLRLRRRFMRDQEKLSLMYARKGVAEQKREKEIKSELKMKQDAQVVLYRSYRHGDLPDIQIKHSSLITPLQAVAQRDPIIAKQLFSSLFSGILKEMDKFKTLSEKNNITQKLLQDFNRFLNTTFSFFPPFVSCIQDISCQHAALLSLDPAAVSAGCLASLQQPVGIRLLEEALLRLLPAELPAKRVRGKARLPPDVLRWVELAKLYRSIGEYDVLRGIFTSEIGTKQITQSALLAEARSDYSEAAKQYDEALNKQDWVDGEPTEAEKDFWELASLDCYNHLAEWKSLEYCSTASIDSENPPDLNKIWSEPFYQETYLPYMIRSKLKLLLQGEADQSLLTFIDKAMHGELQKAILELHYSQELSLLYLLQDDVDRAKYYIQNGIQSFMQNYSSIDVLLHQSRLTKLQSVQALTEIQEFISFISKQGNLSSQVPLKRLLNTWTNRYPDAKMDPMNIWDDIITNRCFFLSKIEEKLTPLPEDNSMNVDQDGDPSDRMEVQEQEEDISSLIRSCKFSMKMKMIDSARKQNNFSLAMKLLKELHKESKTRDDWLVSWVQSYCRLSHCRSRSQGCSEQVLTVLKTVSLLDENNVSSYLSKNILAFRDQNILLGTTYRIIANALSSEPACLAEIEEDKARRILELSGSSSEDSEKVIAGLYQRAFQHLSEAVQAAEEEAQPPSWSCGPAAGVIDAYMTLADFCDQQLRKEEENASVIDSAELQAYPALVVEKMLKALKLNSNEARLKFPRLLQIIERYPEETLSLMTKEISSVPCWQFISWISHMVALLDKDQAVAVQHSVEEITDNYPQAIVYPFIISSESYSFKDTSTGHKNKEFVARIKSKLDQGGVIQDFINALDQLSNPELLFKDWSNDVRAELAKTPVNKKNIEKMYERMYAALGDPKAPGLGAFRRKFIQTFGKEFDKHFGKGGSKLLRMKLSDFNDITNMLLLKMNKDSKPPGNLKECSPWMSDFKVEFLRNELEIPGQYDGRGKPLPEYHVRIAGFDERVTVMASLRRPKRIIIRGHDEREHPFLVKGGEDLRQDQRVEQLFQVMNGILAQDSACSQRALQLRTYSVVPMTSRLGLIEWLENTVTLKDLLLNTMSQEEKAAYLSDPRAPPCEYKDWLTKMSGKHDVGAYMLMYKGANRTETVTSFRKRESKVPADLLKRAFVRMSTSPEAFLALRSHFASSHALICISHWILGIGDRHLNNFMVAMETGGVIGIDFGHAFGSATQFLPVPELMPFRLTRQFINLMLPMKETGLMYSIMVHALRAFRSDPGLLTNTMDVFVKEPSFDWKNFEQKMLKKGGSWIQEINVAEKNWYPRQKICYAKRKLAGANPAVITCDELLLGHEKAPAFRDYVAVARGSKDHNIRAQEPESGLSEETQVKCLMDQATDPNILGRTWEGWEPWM

SMILES	IC50
[2H]C1(O)C2CC3CC1CC(n1c(=O)n(C)c4cnc(Nc5cc(F)c(C(N)=O)cc5C)nc41)(C3)C2 (centres undefined) [US12552793, Compound 23-2]	0.85 nM
Cc1cc(C(N)=O)c(F)cc1Nc1ncc2c(n1)n(C13CC4CC(C1)C(O)C(C4)C3)c(=O)n2C (centres undefined) [US12552793, Compound 17-1]	0.01 nM
Cc1cc2ncnn2cc1Nc1ncc2c(n1)n(C1C3CC4CC1CC(O)(C4)C3)c(=O)n2C (centres undefined) [US12552793, Compound 16-2]	2.49 nM
Cc1cc2ncnn2cc1Nc1ncc2c(n1)n(C1C3CC4CC1CC(O)(C4)C3)c(=O)n2C (centres undefined) [US12552793, Compound 16-1]	0.52 nM
COC1(OC)C2CC3CC1CC(n1c(=O)n(C)c4cnc(Nc5cc(F)c(C(N)=O)cc5C)nc41)(C3)C2 [US12552793, Compound 26]	0.01 nM
[2H]C1(O)C2CC3CC1CC(n1c(=O)n(C)c4cnc(Nc5cn6ncnc6cc5C)nc41)(C3)C2 (centres undefined) [US12552793, Compound 20-1]	0.03 nM
Cc1cc(C(N)=O)c(F)cc1Nc1ncc2c(n1)n(C13CC4CC(C1)C(O)C(C4)C3)c(=O)n2C (centres undefined) [US12552793, Compound 17-2]	2.2 nM
[2H]C1(O)C2CC3CC1CC(n1c(=O)n(C)c4cnc(Nc5cn6ncnc6cc5C)nc41)(C3)C2 (centres undefined) [US12552793, Compound 20-2]	1.1 nM
[2H]C1(O)C2CC3CC1CC(n1c(=O)n(C)c4cnc(Nc5cc(F)c(C(N)=O)cc5C)nc41)(C3)C2 (centres undefined) [US12552793, Compound 23-1]	2.84 nM
